In US20240402196A1 (Exact Sciences Corporation, priority 2018, published 2024) one finds Results data, which are given here for 27 compounds.

The target of this assay is hemoglobin in stool samples (Homo sapiens, UniProt P68871+P69905). Briefly: Accelerated shipping simulation (35C 16 hour challenge), hemoglobin % recovery by ELISA.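 Also: stool hemoglobin measured by ELISA before and after thermal-cycler shipping stress, stability given as percent of pre-stress hemoglobin recovered afterwards.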 Also noted: from tissue; host or cells: stool samples.
Chain of hemoglobin in stool samples (P69905 2-142 limits assumed): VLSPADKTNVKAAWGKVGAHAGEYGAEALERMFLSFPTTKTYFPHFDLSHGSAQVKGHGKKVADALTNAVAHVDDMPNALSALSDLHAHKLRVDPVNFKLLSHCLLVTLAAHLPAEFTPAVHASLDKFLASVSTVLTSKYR
Chain of hemoglobin in stool samples (P68871 2-147 limits assumed): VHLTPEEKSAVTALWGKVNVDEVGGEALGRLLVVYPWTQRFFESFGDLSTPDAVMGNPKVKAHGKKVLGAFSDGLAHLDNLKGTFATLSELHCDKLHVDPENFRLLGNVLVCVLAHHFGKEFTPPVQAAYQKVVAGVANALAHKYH

For `C=CC1=C(C)c2cc3[n-]c(cc4[n-]c(cc5nc(cc1n2)C(C)=C5C=C)c(C)c4CCC(=O)O)c(CCC(=O)O)c3C.O.[Fe+2]` [Hematin], under “additive concentration 6 uM”, the Results entry is recorded as “Improvement in % Hb”.
Regarding `C=CC1=C(C)c2cc3[n-]c(cc4[n-]c(cc5nc(cc1n2)C(C)=C5C=C)c(C)c4CCC(=O)O)c(CCC(=O)O)c3C.[Cl-].[Fe+3]` [Hemin (DMSO)], the Results entry (additive concentration 0.0003%) is given as “Improvement in % Hb”.
For the compound `CC1=NCC[C@@H](C(=O)O)N1` [Ectoine], the Results entry is on record as “No Improvement” (additive concentration 0.718 mM) and “No Improvement” (additive concentration 5 mM).
For `O=C(O)CCP(CCC(=O)O)CCC(=O)O` [TCEP], the Results result is recorded as “No Improvement” (additive concentration 0.005 mM); “No Improvement” (additive concentration 0.01 mM); “No Improvement” (additive concentration 0.1 mM); “No Improvement” (additive concentration 250 uM); “No Improvement” (additive concentration 500 uM); “No Improvement” (additive concentration 750 uM). For the same compound, the Results entry (additive concentration 1 mM) is on record as “No Improvement”.
For the compound `N[C@@H](Cc1c[nH]cn1)C(=O)O` [Histidine], the Results entry reads like this: (additive concentration 0.0028 mM) “No Improvement”; (additive concentration 0.0228 mM) “No Improvement”; (additive concentration 0.228 mM) “No Improvement”.
As for `O[C@H](CS)[C@H](O)CS` (racemic) [Dithiothreitol], the Results entry is listed as “No Improvement” (Additive Concentration 1 uM), “No Improvement” (additive concentration 10 uM), “No Improvement” (additive concentration 0.1 mM) and “No Improvement” (additive concentration 1 mM).
Turning to `C=CC1=C(C)c2cc3[n-]c(cc4nc(cc5[n-]c(cc1n2)c(C)c5C=C)C(C)=C4CCC(=O)O)c(CCC(=O)O)c3C.[Cl-].[Fe+3]` [Hemin (H2O:NaOH)], the Results result is “Improvement in % Hb” (additive concentration 0.00005%); “Improvement in % Hb” (additive concentration 0.00005%, pH 6.5); “Improvement in % Hb” (additive concentration 0.00009%); “Improvement in % Hb” (additive concentration 0.00009%, pH 6.5); “Improvement in % Hb” (additive concentration 0.0003%); “Improvement in % Hb” (additive concentration 0.003%). In addition, the Results result is on record as “Improvement in % Hb” (additive concentration 0.003%, pH 6.5); “Improvement in % Hb” (additive concentration […]); “Improvement in % Hb” (additive concentration […], pH 6.5).
Take Dextran Sulphate: the Results result runs as follows: (Additive Concentration 1 uM) “No Improvement”; (additive concentration 0.2 uM) “No Improvement”; (additive concentration 2 uM) “No Improvement”; (additive concentration 0.5 mM) “No Improvement”.
For `C=CC1=C(C)c2cc3[n-]c(cc4nc(cc5[n-]c(cc1n2)c(C)c5C=C)C(C)=C4CCC(=O)O)c(CCC(=O)O)c3C.[Cl-].[Cr+3]` [Protoporphyrin IX Chromium (Vendor 1)], the Results result is, setting by setting: (additive concentration 1.25 uM) “Improvement in % Hb”; (additive concentration 5 uM) “Improvement in % Hb”.
As to Heparin, the Results result by setting is: (additive concentration 25 uM) “No Improvement”; (additive concentration 250 uM) “No Improvement”.
Regarding `C=CCn1cc[n+](C)c1.[Cl-]` [1-Allyl-3-methylimidazolium Chloride], the Results entry reads like this: (additive concentration 0.01 mM) “No Improvement”; (additive concentration 0.1 mM) “No Improvement”; (additive concentration 1 mM) “No Improvement”.
Regarding `C=CC1=C(C)c2cc3[n-]c(cc4nc(cc5[n-]c(cc1n2)c(C)c5C=C)C(C)=C4CCC(=O)O)c(CCC(=O)O)c3C.[Cl-].[Co+3]` [Protoporphyrin IX Cobalt (Vendor 2)], the Results entry (additive concentration 1.25 uM) was “Improvement in % Hb” and the Results entry (additive concentration 5 uM) is “Improvement in % Hb”.
As to `O=C(O)CC(NC(CC(=O)O)C(=O)O)C(=O)O` (stereo not shown) [Iminodisuccinic acid], under “additive concentration 10 mM”, the Results result was “No Improvement”.
For `O=P(O)(O)CN(CP(=O)(O)O)CP(=O)(O)O` [ATMP], the Results result is “No Improvement” (additive concentration 0.02 mM), “No Improvement” (additive concentration 0.2 mM) and “No Improvement” (additive concentration 2 mM).
For `C=CC1=C(C)c2cc3[n-]c(cc4nc(cc5[n-]c(cc1n2)c(C)c5C=C)C(C)=C4CCC(=O)O)c(CCC(=O)O)c3C.[Cl-].[Cr+3]` [Protoporphyrin IX Chromium (Vendor 2)], the Results entry (additive concentration 1.25 uM) was “Improvement in % Hb” and the Results result (additive concentration 5 uM) is “Improvement in % Hb”.
Consider Deferoxamine Mesylate Salt, for which the Results result runs as follows: (additive concentration 10 uM) “No Improvement”; (additive concentration 100 uM) “No Improvement”; (additive concentration 1 mM) “No Improvement”; (additive concentration 5 mM) “No Improvement”.
Take `OC[C@H]1O[C@H](OC[C@H]2O[C@H](O[C@]3(CO)O[C@H](CO)[C@@H](O)[C@@H]3O)[C@H](O)[C@@H](O)[C@@H]2O)[C@H](O)[C@@H](O)[C@H]1O` [Raffinose]: the Results result (additive concentration 5 uM) is reported as “No Improvement”, the Results result (additive concentration 50 uM) is “No Improvement”, the Results result (additive concentration 5 mM) was “No Improvement” and the Results entry (additive concentration 24 mM) is reported as “No improvement”.
Turning to `CC(C(=O)[O-])N(CC(=O)[O-])CC(=O)[O-].O.[Na+].[Na+].[Na+]` (stereo not shown), the Results entry is, setting by setting: (additive concentration 0.1 mM) “No Improvement”; (additive concentration 1 mM) “No Improvement”; (additive concentration 10 mM) “No Improvement”.
Take `OC[C@H]1OC(O)[C@H](O)[C@@H](O)[C@@H]1O` (stereo partly shown) [Glucose]: the Results result by setting is: (additive concentration 72 uM) “No Improvement”; (additive concentration 720 uM) “No Improvement”.
Consider `N[C@@H](CS)C(=O)O` [Cysteine], for which the Results entry (Additive Concentration 0.1 uM) is “No Improvement”; the Results entry (Additive Concentration 1 uM) is given as “No Improvement”; the Results result (additive concentration 5 uM) is “No Improvement”; the Results result (additive concentration 0.01 mM) is “No Improvement”; the Results entry (additive concentration 0.1 mM) is “No Improvement”; the Results result (additive concentration 1 mM) was “No Improvement”. Also, the Results entry (additive concentration 10 mM) is “No Improvement”.
Consider `C=CC1=C(C)c2cc3[n-]c(cc4nc(cc5[n-]c(cc1n2)c(C)c5C=C)C(C)=C4CCC(=O)O)c(CCC(=O)O)c3C.[Cl-].[Co+3]` [Protoporphyrin IX Cobalt (Vendor 3)], for which the Results entry (additive concentration 1.25 uM) was “Improvement in % Hb” and the Results entry (additive concentration 5 uM) was “Improvement in % Hb”.
Consider `O=C(/C=C/C(=O)Oc1c(Br)cc(Br)cc1C(=O)O)Oc1c(Br)cc(Br)cc1C(=O)O` [Bis(3,5-dibromosalilcyl)fumarate], for which the Results entry was “No Improvement” (additive concentration 5 uM), “No Improvement” (additive concentration 10 uM) and “No Improvement” (additive concentration 100 uM).
As to `O=C(O)CCCCC1CCSS1` (racemic) [(±)-α-Lipoic acid], the Results result (additive concentration […]) is given as “No Improvement”.
As for `C=CC1=C(C)c2cc3[n-]c(cc4nc(cc5[n-]c(cc1n2)c(C)c5C=C)C(C)=C4CCC(=O)O)c(CCC(=O)O)c3C.[Cl-].[Co+3]` [Protoporphyrin IX Cobalt (Vendor 1)], the Results entry is reported as “Improvement in % Hb” (additive concentration 1.25 uM) and “Improvement in % Hb” (additive concentration 5 uM).
Take `C=CC1=C(C)c2cc3[n-]c(cc4nc(cc5[n-]c(cc1n2)c(C)c5C=C)C(C)=C4CCC(=O)O)c(CCC(=O)O)c3C.[Cl-].[Ga+3]` [Protoporphyrin IX Gallium]: the Results entry (additive concentration 1.25 uM) is “No Improvement” and the Results result (additive concentration 5 uM) is reported as “No Improvement”.
For `O=C([O-])CN(CCN(CC(=O)[O-])CC(=O)O)CC(=O)O.[Na+].[Na+]` [EDTA: Disodium Salt], the Results entry is, setting by setting: (additive concentration 5 mM) “No Improvement”; (additive concentration 10 mM) “No Improvement”; (additive concentration 30 mM) “No Improvement”.
Take `CC(O)CO` (stereo not shown) [Propylene Glycol]: the Results result is, setting by setting: (Additive Concentration 0.10%) “No Improvement”; (Additive Concentration 0.50%) “No Improvement”; (Additive Concentration 1%) “No Improvement”.
